Reference: patent publication US20200017495A1, “NOVEL HETEROCYCLIC COMPOUNDS AND THEIR USE IN PREVENTING OR TREATING BACTERIAL INFECTIONS” (priority 2017, published 2020)

System: Escherichia coli (ECO) isolates
Test: MIC of compounds alone and combined with antibacterials, broth microdilution (CLSI)
Assay type: cell-based
How it was run: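 Antibacterial MICs in combination were determined at every compound concentration tested, alongside compound MICs alone. Bacteria grew in cation-adjusted Mueller-Hinton broth starting from 5.10^5 CFU/mL, incubated at 35° C for 16-20 h, and endpoints were the lowest concentrations with no visible growth.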

`CC1(C)S[C@@H]2[C@H](NC(=O)[C@H](N)c3ccc(O)cc3)C(=O)N2[C@H]1C(=O)O` [AMX, Amoxicillin] was tested, and the “MIC ATB in combination” value (ECO 200259, AF2 @ 8 μg/mL) was less than 0.25 µg/mL, the “MIC ATB in combination” value (ECO 200259, CLA @ 4 μg/mL) was 8 µg/mL and the “MIC ATB in combination” value (ECO 200344, AF2 @ 8 μg/mL) was less than 0.25 µg/mL. For the same compound, the “MIC ATB in combination” value (ECO 200344, CLA @ 4 μg/mL) was 16 µg/mL, the “MIC ATB in combination” value (ECO 260096, AF2 @ 8 μg/mL) was 0.5 µg/mL and the “MIC ATB in combination” value (ECO 260096, CLA @ 4 μg/mL) was 4 µg/mL. For the same compound, the “MIC ATB in combination” value (ECO 260304, AF2 @ 8 μg/mL) was less than 0.25 µg/mL, the “MIC ATB in combination” value (ECO 260304, CLA @ 4 μg/mL) was 4 µg/mL and the “MIC ATB in combination” value (ECO 260508, AF2 @ 8 μg/mL) was less than 0.25 µg/mL. For the same compound, the “MIC ATB in combination” value (ECO 260508, CLA @ 4 μg/mL) was 64 µg/mL, the “MIC ATB in combination” value (ECO RGN238, AF2 @ 8 μg/mL) was less than 0.25 µg/mL and the “MIC ATB in combination” value (ECO UFR15, AF2 @ 8 μg/mL) was less than 0.25 µg/mL. The “MIC ATB in combination” value (ECO UFR16, AF2 @ 8 μg/mL) was less than 0.25 µg/mL, the “MIC ATB in combination” value (ECO UFR18, AF2 @ 8 μg/mL) was less than 0.25 µg/mL and the “MIC ATB in combination” value (ECO UFR19, AF2 @ 8 μg/mL) was less than 0.25 µg/mL. For the same compound, the “MIC ATB in combination” value (ECO UFR32, AF2 @ 8 μg/mL) was less than 0.25 µg/mL, the “MIC ATB in combination” value (ECO UFR39, AF2 @ 8 μg/mL) was less than 0.25 µg/mL and the “MIC ATB in combination” value (ECO UFR41, AF2 @ 8 μg/mL) was less than 0.25 µg/mL. The “MIC ATB in combination” value (ECO UFR45, AF2 @ 8 μg/mL) was less than 0.25 µg/mL, the “MIC ATB in combination” value (ECO UFR61O, AF2 @ 8 μg/mL) was 4 µg/mL and the “MIC ATB in combination” value (ECO UFR62, AF2 @ 8 μg/mL) was less than 0.25 µg/mL. The “MIC ATB in combination” value (ECO UFR74, AF2 @ 8 μg/mL) was less than 0.25 µg/mL, the “MIC ATB in combination” value (ECO UFR86, AF2 @ 8 μg/mL) was 2 µg/mL and the “MIC ATB in combination” value (ECO UFR86, CLA @ 4 μg/mL) was 8 µg/mL. For the same compound, the “MIC ATB in combination” value (ECO UFR209, CLA @ 4 μg/mL) was 32 µg/mL, the “MIC ATB in combination” value (ECO UFR210, CLA @ 4 μg/mL) was 8 µg/mL and the “MIC ATB in combination” value (ECO UFR211, CLA @ 4 μg/mL) was 8 µg/mL. It also gave an MIC (strain ECO 4133, genotype TEM-30, OXA-1) greater than 256 µg/mL, an MIC (strain ECO 5302, genotype TEM-1, OXA-1) greater than 256 µg/mL and an MIC (strain ECO 131119, genotype TEM-1, OXA-48) greater than 1024 µg/mL. It also gave an MIC (strain ECO 180070, genotype TEM-1, CTX-M-15) greater than 256 µg/mL, an MIC (strain ECO 190314, genotype CTX-M-1) greater than 256 µg/mL and an MIC (strain ECO 190317, genotype TEM-1, SHV-12, CTX-M-15, OXA-1) greater than 1024 µg/mL. The MIC (strain ECO 190457, genotype CTX-M-15, OXA-1) was greater than 256 µg/mL, the MIC (strain ECO 190549, genotype CTX-M-1) was greater than 256 µg/mL and the MIC (strain ECO 200159, genotype TEM-1, CTX-M-14) was greater than 256 µg/mL. It also gave an MIC (strain ECO 200259, genotype CTX-M-14) greater than 256 µg/mL, an MIC (strain ECO 200344, genotype CTX-M-1) greater than 256 µg/mL and an MIC (strain ECO 260096, genotype CTX-M-132) greater than 256 µg/mL. For the same compound, the MIC (strain ECO 260304, genotype CTX-M-15) was greater than 256 µg/mL, the MIC (strain ECO 260508, genotype TEM-1, CTX-M-15, OXA-1) was greater than 256 µg/mL and the MIC (strain ECO RGN238, genotype OXA-1) was greater than 1024 µg/mL. The MIC (strain ECO UFR15, genotype TEM-1, OXA-48) was greater than 256 µg/mL, the MIC (strain ECO UFR16, genotype TEM-1, CTX-M-15, OXA-1, OXA-48) was greater than 256 µg/mL and the MIC (strain ECO UFR17, genotype TEM-1, CTX-M-15, CMY-2, OXA-1, OXA-181) was greater than 256 µg/mL. For the same compound, the MIC (strain ECO UFR18, genotype CTX-M-15, OXA-204) was greater than 256 µg/mL, the MIC (strain ECO UFR19, genotype CTX-M-15, CMY-2, OXA-1, OXA-204) was greater than 256 µg/mL and the MIC (strain ECO UFR20, genotype SHV-1, CTX-M-15, OXA-1, OXA-232) was greater than 256 µg/mL. The MIC (strain ECO UFR32, genotype TEM-1, VEB-1, OXA-10) was greater than 256 µg/mL, the MIC (strain ECO UFR39, genotype CTX-M-15, NDM-1) was greater than 1024 µg/mL and the MIC (strain ECO UFR41, genotype TEM-1, CTX-M-15, CMY-2, OXA-1, NDM-4) was greater than 256 µg/mL. For the same compound, the MIC (strain ECO UFR45, genotype TEM-1, CMY-4, OXA-1, OXA-48, VIM-1) was greater than 256 µg/mL, the MIC (strain ECO UFR52, genotype TEM-1, SHV-12, IMP-8) was greater than 256 µg/mL and the MIC (strain ECO UFR61O, genotype TEM-1, KPC-2) was greater than 256 µg/mL. The MIC (strain ECO UFR62, genotype TEM-1, CTX-M-9, KPC-2) was greater than 256 µg/mL, the MIC (strain ECO UFR74, genotype SHV-1, DHA-1) was greater than 256 µg/mL and the MIC (strain ECO UFR86, genotype ompC-, ompF-) was 16 µg/mL. For the same compound, the MIC (strain ECO UFR174, genotype TEM-1, KPC-2, OXA-1) was greater than 128 µg/mL, the MIC (strain ECO UFR175, genotype TEM-1, KPC-2, OXA-9) was greater than 128 µg/mL and the MIC (strain ECO UFR176, genotype KPC-3, OXA-9*) was greater than 128 µg/mL. For the same compound, the MIC (strain ECO UFR177, genotype TEM-1, CTX-M-15, OXA-1, OXA-2, NDM-1, RmtC, antibiotic alone) was greater than 128 µg/mL, the MIC (strain ECO UFR178, genotype TEM-1, CTX-M-15, OXA-9, NDM-1, antibiotic alone) was greater than 128 µg/mL and the MIC (strain ECO UFR179, genotype TEM-1, SHV-12, CTX-M-15, NDM-1, antibiotic alone) was greater than 128 µg/mL. The MIC (strain ECO UFR180, genotype TEM-1, CMY-30, OXA-1, NDM-1, antibiotic alone) was greater than 128 µg/mL, the MIC (strain ECO UFR181, genotype TEM-1, CTX-M-15, NDM-5, antibiotic alone) was greater than 128 µg/mL and the MIC (strain ECO UFR182, genotype CTX-M-15, OXA-1, NDM-6, antibiotic alone) was greater than 128 µg/mL. It also gave an MIC (strain ECO UFR183, genotype CTX-M-15, OXA-1, NDM-7, antibiotic alone) greater than 128 µg/mL, an MIC (strain ECO UFR184, genotype CTX-M-15, CMY-4, OXA-1, OXA-204) greater than 128 µg/mL and an MIC (strain ECO UFR185, genotype OXA-48) greater than 128 µg/mL. It also gave an MIC (strain ECO UFR186, genotype TEM-1, CTX-M-14, OXA-48) greater than 128 µg/mL, an MIC (strain ECO UFR187, genotype CTX-M-15, OXA-48) greater than 128 µg/mL and an MIC (strain ECO UFR189, genotype TEM-1, CTX-M-15, OXA-48) greater than 128 µg/mL. The MIC (strain ECO UFR190, genotype CTX-M-24, OXA-48) was greater than 128 µg/mL, the MIC (strain ECO UFR191, genotype TEM-1, CTX-M-24, OXA-48) was greater than 128 µg/mL and the MIC (strain ECO UFR204, genotype TEM-1, CMY-4, OXA-48, VIM-1, antibiotic alone) was greater than 128 µg/mL. For the same compound, the MIC (strain ECO UFR205, genotype CTX-M-15, VIM-4, antibiotic alone) was greater than 128 µg/mL, the MIC (strain ECO UFR206, genotype TEM-1, CTX-M-15, OXA-1, VIM-4, antibiotic alone) was greater than 128 µg/mL and the MIC (strain ECO UFR207, genotype CTX-M-15) was greater than 128 µg/mL. The MIC (strain ECO UFR208, genotype SHV-12) was greater than 128 µg/mL, the MIC (strain ECO UFR209, genotype TEM-1, CTX-M-15) was greater than 128 µg/mL and the MIC (strain ECO UFR210, genotype SHV-12) was greater than 128 µg/mL. For the same compound, the MIC (strain ECO UFR211, genotype TEM-24) was greater than 128 µg/mL, the MIC (strain ECO UFR212, genotype CMY-2) was greater than 128 µg/mL and the MIC (strain ECO UFR218, genotype TEM-1, SHV-1, CTX-M-15) was greater than 128 µg/mL. The MIC (strain ECO UFR252GO, genotype VIM-2, antibiotic alone) was greater than 128 µg/mL and the MIC (strain ECO UFR255, genotype NDM-1, antibiotic alone) was greater than 128 µg/mL.
